Consider two compounds from US20060189663A1, “Pyrrole-2,5-dithione derivatives as liver x receptor modulators” (AstraZeneca AB, priority 2003, published 2006).

The experiment deals with T1, LXRalpha and/or beta.
T1 construct: fused on or other part: His-tag (6xHis) on the LXR-LBD
Put plainly: Co-activator recruitment assay (time-resolved fluorescence, LXR-LBD / SRC-1 peptide). In kind it is biochemical, human. Conditions: LXR isoform (alpha or beta) not stated; 22-R Hydroxycholesterol at 50 μM as 100% control; read-out: EC50 in coactivator recruitment assays. The text has this: Co-Activator Recruitment Assay The Ligand Binding Domain (LBD) of human LXRalpha (amino acid 205-447) and LXRbeta (amino acid 216-461) was produced by recombinant techniques in E coli. A fragment of the human Steroid Receptor Co-Activator-1 (SRC-1) was produced as a synthetic peptide. An anti-6His-antibody coupled with Europium (Eu^3+) was used to recognize the His-tag on the LXR-LBD and Allophycocyanin (APC) coupled to streptavidin was used to recognize the biotinylated SRC-1. Agonist binding to LXRalpha or LXRbeta enhances the affinity of LXR towards SRC-1 and thereby brings Eu^3+ and APC in close proximity. Eu^3+ is excited at 337 nm and emitts light at 620 nm. This emission, when in close proximity, excites APC to emit light at 665 nm.
Dilution plates with compounds in DMSO were further diluted in buffer {20 mM [Tris(hydroxymethyl)aminomethane] pH 7.5, 0.125% CHAPS {3-[(3-Cholamidopropyl)dimethylammonio]-1-propanesulfonate}, 2 mM DTT (Dithiothreitol) and 0.05% BSA (Bovine Serum Albumin)} in order to reduce DMSO concentration, 0.5 μl to 13.5 μl. To this, 6 μl assay mix was added and the plates (384-well V-groove plates) were incubated at room temperature for 60 to 80 min. […] Time-resolved fluorescence readings were done in a Wallac Victor reader at 665 nm followed by reading at 615 nm. […]

SMILES strings stand for the structures.

As a reminder, the EC50 is the concentration that produces a half-maximal response.

For `CCCCN1C(=O)C(c2ccccc2)=C(Nc2ccc(OC)cc2)C1=S` [Example 7, 1-Butyl-4-[(4-methoxyphenyl)amino]-3-phenyl-5-thioxo-1,5-dihydro-2H-pyrrol-2-one], the concentration giving a half-maximal response (EC50) turned out to be 90 nM.

Turning to `Nc1ccc(CN2C(=S)C(Nc3ccc(OC(F)F)cc3)=C(c3ccccc3)C2=S)cn1` [Example 18, 1-[(6-Aminopyridin-3-yl)methyl]-3-{[4-(difluoromethoxy)phenyl]amino}-4-phenyl-1H-pyrrole-2,5-dithione], the EC50 amounted to 140 nM.
